Converted amounts (≈) assume the structure as drawn. The source made the active and inactive calls. No cut-off for these calls is given here.
How the values were obtained:
[1] = tested on: Staphylococcus aureus; test: Antibacterial activity against Staphylococcus aureus ATCC 29213 assessed as inhibition of bacterial growth incubated for 16 to 18 hrs by CLSI based microdilution method; type: functional; conditions: time 16-18 hrs
[2] = tested on: Mycobacterium tuberculosis; test: Antitubercular activity against Mycobacterium tuberculosis H37Rv ATCC 27294 assessed as inhibition of bacterial growth incubated for 7 days by Presto blue resazurin microtiter plate assay; type: functional; conditions: H37Rv ATCC 27294, 168 h, time 7 day
[3] = tested on: Mycobacterium tuberculosis; test: Bactericidal activity against Mycobacterium tuberculosis H37Rv ATCC 27294 assessed as reduction in colony formation at 1 to 10 times of MIC incubated for 6 to 7 days by time-kill assay; type: functional, organism-based; conditions: time 6-7 day

## Cc1cccc(-n2cc(CSc3nc(=O)c4cc(Cl)cc([N+](=O)[O-])c4s3)nn2)c1
[1]
  MIC: ≥ 64 µg/mL
[2]
  MIC: 8 µg/mL (≈ 17.9 µM)

## CO[C@H]1/C=C/O[C@@]2(C)Oc3c(C)c(O)c4c(O)c(c(/C=N/N5CCN(C)CC5)c(O)c4c3C2=O)NC(=O)/C(C)=C\C=C\[C@H](C)[C@H](O)[C@@H](C)[C@@H](O)[C@@H](C)[C@H](OC(C)=O)[C@@H]1C [RIFAMPIN]
[3]
  Activity: Active
[2]
  MIC: 0.06 µg/mL (≈ 0.0729 µM)

## O=c1nc(SCc2cn(-c3ccccc3)nn2)sc2c([N+](=O)[O-])cc(Cl)cc12
[1]
  MIC: ≥ 64 µg/mL
[2]
  MIC: 32 µg/mL (≈ 74.1 µM)

## O=c1nc(SCc2cn(-c3ccc(F)cc3)nn2)sc2c([N+](=O)[O-])cc(Cl)cc12
[1]
  MIC: ≥ 64 µg/mL
[2]
  MIC: 8 µg/mL (≈ 17.8 µM)

## O=c1nc(SCc2cn(-c3ccc(F)c(Cl)c3)nn2)sc2c([N+](=O)[O-])cc(Cl)cc12
[1]
  MIC: ≥ 64 µg/mL
[2]
  MIC: 8 µg/mL (≈ 16.5 µM)

## O=c1ccc2cc(-n3cc(CSc4nc(=O)c5cc(Cl)cc([N+](=O)[O-])c5s4)nn3)ccc2o1
[1]
  MIC: ≥ 64 µg/mL
[2]
  MIC: 32 µg/mL (≈ 64 µM)

## O=c1nc(SCc2cn(-c3cccc(Cl)c3)nn2)sc2c([N+](=O)[O-])cc(Cl)cc12
[1]
  MIC: ≥ 64 µg/mL
[2]
  MIC: 16 µg/mL (≈ 34.3 µM)

## NNC(=O)c1ccncc1 [ISONIAZID]
[2]
  MIC: 0.03 µg/mL (≈ 0.219 µM)

## O=c1nc(SCc2cn(-c3ccc(F)c(F)c3)nn2)sc2c([N+](=O)[O-])cc(Cl)cc12
[1]
  MIC: ≥ 64 µg/mL
[2]
  MIC: 8 µg/mL (≈ 17.1 µM)

## O=C(O)c1ccc(-n2cc(CSc3nc(=O)c4cc(Cl)cc([N+](=O)[O-])c4s3)nn2)cc1O
[1]
  MIC: ≥ 64 µg/mL
[2]
  MIC: > 64 µg/mL

## O=c1nc(SCc2cn(-c3cccc(F)c3)nn2)sc2c([N+](=O)[O-])cc(Cl)cc12
[1]
  MIC: ≥ 64 µg/mL
[2]
  MIC: 8 µg/mL (≈ 17.8 µM)

## O=c1nc(SCc2cn(-c3cccc(C(F)(F)F)c3)nn2)sc2c([N+](=O)[O-])cc(Cl)cc12
[1]
  MIC: ≥ 64 µg/mL
[2]
  MIC: 8 µg/mL (≈ 16 µM)

## O=C(O)c1cccc(-n2cc(CSc3nc(=O)c4cc(Cl)cc([N+](=O)[O-])c4s3)nn2)c1
[1]
  MIC: ≥ 64 µg/mL
[2]
  MIC: > 64 µg/mL

## COc1ccc(-n2cc(CSc3nc(=O)c4cc(Cl)cc([N+](=O)[O-])c4s3)nn2)cc1
[1]
  MIC: ≥ 64 µg/mL
[2]
  MIC: 32 µg/mL (≈ 69.3 µM)

## N#Cc1cccc(-n2cc(CSc3nc(=O)c4cc(Cl)cc([N+](=O)[O-])c4s3)nn2)c1
[1]
  MIC: ≥ 64 µg/mL
[2]
  MIC: 64 µg/mL (≈ 140 µM)

## O=c1nc(SCc2cn(-c3ccc4ccccc4c3)nn2)sc2c([N+](=O)[O-])cc(Cl)cc12
[1]
  MIC: ≥ 64 µg/mL
[2]
  MIC: 64 µg/mL (≈ 133 µM)

## COc1cc(-n2cc(CSc3nc(=O)c4cc(Cl)cc([N+](=O)[O-])c4s3)nn2)cc(OC)c1OC
[1]
  MIC: ≥ 64 µg/mL
[2]
  MIC: 64 µg/mL (≈ 123 µM)

## COc1ccc(-n2cc(CSc3nc(=O)c4cc(Cl)cc([N+](=O)[O-])c4s3)nn2)cc1OC
[1]
  MIC: ≥ 64 µg/mL
[2]
  MIC: 32 µg/mL (≈ 65 µM)

## O=c1nc(SCc2cn(-c3ccc(Br)cc3)nn2)sc2c([N+](=O)[O-])cc(Cl)cc12
[1]
  MIC: ≥ 64 µg/mL
[2]
  MIC: 4 µg/mL (≈ 7.83 µM)

## O=c1nc(SCc2cn(-c3cccnc3)nn2)sc2c([N+](=O)[O-])cc(Cl)cc12
[1]
  MIC: ≥ 64 µg/mL
[2]
  MIC: 32 µg/mL (≈ 73.9 µM)

## O=c1nc(SCc2cn(-c3ccc(Oc4ccccc4)cc3)nn2)sc2c([N+](=O)[O-])cc(Cl)cc12
[1]
  MIC: ≥ 64 µg/mL
[2]
  MIC: 32 µg/mL (≈ 61.1 µM)

## O=c1nc(SCc2cn(-c3ccccc3F)nn2)sc2c([N+](=O)[O-])cc(Cl)cc12
[1]
  MIC: ≥ 64 µg/mL
[2]
  MIC: 16 µg/mL (≈ 35.6 µM)

## O=c1nc(SCc2cn(-c3ccccc3Cl)nn2)sc2c([N+](=O)[O-])cc(Cl)cc12
[1]
  MIC: ≥ 64 µg/mL
[2]
  MIC: 32 µg/mL (≈ 68.6 µM)

## O=c1nc(SCc2cn(-c3ccc([N+](=O)[O-])cc3)nn2)sc2c([N+](=O)[O-])cc(Cl)cc12
[1]
  MIC: ≥ 64 µg/mL
[2]
  MIC: 16 µg/mL (≈ 33.6 µM)

## CC[C@@H](CO)NCCN[C@@H](CC)CO [ETHAMBUTOL]
[2]
  MIC: 1 µg/mL (≈ 4.89 µM)

## CN[C@@H]1[C@H](O[C@H]2[C@H](O[C@H]3[C@H](O)[C@@H](O)[C@H](N=C(N)N)[C@@H](O)[C@@H]3N=C(N)N)O[C@@H](C)[C@]2(O)C=O)O[C@@H](CO)[C@H](O)[C@H]1O [STREPTOMYCIN]
[2]
  MIC: 1 µg/mL (≈ 1.72 µM)

## CCCCCCOc1ccc(-n2cc(CSc3nc(=O)c4cc(Cl)cc([N+](=O)[O-])c4s3)nn2)cc1
[1]
  MIC: ≥ 64 µg/mL
[2]
  MIC: 8 µg/mL (≈ 15 µM)

## Cc1ccc(-n2cc(CSc3nc(=O)c4cc(Cl)cc([N+](=O)[O-])c4s3)nn2)c(C)c1
[1]
  MIC: ≥ 64 µg/mL
[2]
  MIC: 32 µg/mL (≈ 69.6 µM)

## O=c1nc(SCc2cn(-c3ccc(N4CCCCC4)cc3)nn2)sc2c([N+](=O)[O-])cc(Cl)cc12
[1]
  MIC: ≥ 64 µg/mL
[2]
  MIC: 64 µg/mL (≈ 124 µM)

## CC(=O)c1cccc(-n2cc(CSc3nc(=O)c4cc(Cl)cc([N+](=O)[O-])c4s3)nn2)c1
[1]
  MIC: ≥ 64 µg/mL
[2]
  MIC: 32 µg/mL (≈ 67.5 µM)

## O=c1nc(SCc2cn(-c3ccc(O)cc3)nn2)sc2c([N+](=O)[O-])cc(Cl)cc12
[1]
  MIC: ≥ 64 µg/mL
[2]
  MIC: 64 µg/mL (≈ 143 µM)

## NS(=O)(=O)c1cccc(-n2cc(CSc3nc(=O)c4cc(Cl)cc([N+](=O)[O-])c4s3)nn2)c1
[1]
  MIC: ≥ 64 µg/mL
[2]
  MIC: > 64 µg/mL

## CC(C)Oc1cccc(-n2cc(CSc3nc(=O)c4cc(Cl)cc([N+](=O)[O-])c4s3)nn2)c1
[1]
  MIC: ≥ 64 µg/mL
[2]
  MIC: 64 µg/mL (≈ 131 µM)

## O=c1nc(SCc2cn(-c3cccc([N+](=O)[O-])c3)nn2)sc2c([N+](=O)[O-])cc(Cl)cc12
[1]
  MIC: ≥ 64 µg/mL
[2]
  MIC: 32 µg/mL (≈ 67.1 µM)

## O=c1nc(SCc2cn(-c3ccc(N4CCOCC4)c(F)c3)nn2)sc2c([N+](=O)[O-])cc(Cl)cc12
[1]
  MIC: ≥ 64 µg/mL
[2]
  MIC: 64 µg/mL (≈ 120 µM)

## NS(=O)(=O)c1ccc(-n2cc(CSc3nc(=O)c4cc(Cl)cc([N+](=O)[O-])c4s3)nn2)cc1
[1]
  MIC: ≥ 64 µg/mL
[2]
  MIC: > 64 µg/mL

## O=c1nc(SCc2cn(-c3ccc(N4CCCCC4)c(F)c3)nn2)sc2c([N+](=O)[O-])cc(Cl)cc12
[1]
  MIC: ≥ 64 µg/mL
[2]
  MIC: 64 µg/mL (≈ 120 µM)

## O=C(O)c1ccc(-n2cc(CSc3nc(=O)c4cc(Cl)cc([N+](=O)[O-])c4s3)nn2)cc1
[1]
  MIC: ≥ 64 µg/mL
[2]
  MIC: > 64 µg/mL

## COc1cc(OC)cc(-n2cc(CSc3nc(=O)c4cc(Cl)cc([N+](=O)[O-])c4s3)nn2)c1
[1]
  MIC: ≥ 64 µg/mL
[2]
  MIC: > 64 µg/mL

## Cc1ccc(-n2cc(CSc3nc(=O)c4cc(Cl)cc([N+](=O)[O-])c4s3)nn2)cc1
[1]
  MIC: ≥ 64 µg/mL
[2]
  MIC: 8 µg/mL (≈ 17.9 µM)

— ChEMBL document CHEMBL5107972 (RSC Med Chem, 2022)
